Two compounds from patent US7915297B2, “Isoxazole derivatives and use thereof” (SK Holdings Co., Ltd., priority 2005, dated 2011) can be followed below.

In one assay the test system is ovariectomized ICR mice. In words: In vivo osteoporosis assay in ovariectomized ICR mice (DEXA, micro-CT of spine L3-L6). The settings on record: for BMD (g/cm^2) Avg. ± SD / BMD Change (%) / Trabeculae volume Change (%) / Trabeculae volume(mm^2) Avg. ± SD: four weeks; for BMD (g/cm^2) Avg. ± SD: spine L3-L6, DEXA; for BMD Change (%) / Trabeculae volume Change (%): Sham = 0.0. As to the method: Experimental animals were female ICR mice having body weights of 24-28 g which were about 7 weeks old. In each cage, measuring 40×25×17 cm, 2-3 mice were reared at 22° C., RH 50%.
Ovariectomy is known as one of the most widely used techniques for inducing osteoporosis. As in postmenopause case, the ovariectomy-operation induce estrogen insufficient, result in decrease of osteogenesis and increase of bone resorption, lead to osteoporosis. Anaesthetized 7-week-old female ICR mice underwent ovariectomies and, immediately after the removal of both ovaries, they were administered with test compounds to determine the preventive and therapeutic effects thereof on osteoporosis.
1) Preparation of test material: Predetermined amounts of Derivative (1) were suspended in 0.5% CMC to prepare test materials to be administered. As for the control drug alendronate, 0.17% citric acid was added thereto as a pharmacopoeia to aid in the uptake of the drug.
2) Administration period: four weeks
3) Administration route and method: test materials were administered in a volume of 10 ml/kg of body weight, measured on the administration day, into seven groups: (1) intact control (ICR mice bred with typical diet, control); (2) ovariectomy control (the abdomen opened and closed without removal of the ovary, Sham); (3) ovariectomy group (ovaries removed, OVX); (4) alendronate-treated group (a dose of 5 mg/kg/day); (5) Derivative (1) 30 mg/kg/day treated group (OVX+Derivative (1) 30 mpk); (6) Derivative (1) 90 mg/kg/day treated group (OVX+Derivative (1) 90 mpk); and (7) Derivative (1) […] treated group (OVX+Derivative (1) 30 mpkW). Groups (1)˜(6) were orally treated five day a week for four weeks while group (7) was treated once a week for four weeks.
After administration for four weeks, the spine (L3-L6) was analyzed for bone mineral density (BMD) through dual-energy X-ray absorptiometry (DEXA) using a Lunar Pixi #5 instrument. Micro-computed tomography (Micro-CT) was performed to determine the effects of the test materials on bone mass and bone strength and on the tertiary bone mass of the spine (L3-L6).

The subject of assay [1] is Wnt/β-catenin signaling (β-catenin activity) in SW480 cell line. Kind of assay: Cell-based Wnt agonist screening, TCF luciferase reporter, SW480 (TCF-FL). The arrangement: species or system human. The settings on record: Homo sapiens, % of LiCl (20 mM), 24 h, Con. 120 μM, read-out: Max. Activity (%). The essentials:
(§1)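 HEK293 and SW480 lines stably carried a 5X TCF firefly luciferase reporter under G418 selection. Cells (8,000–15,000/well, RPMI 1640 with 5% FBS) were grown 24 h, then treated with compound for 24 h. Luciferase activity was expressed as percent of the 20 mM LiCl positive control.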

The test system of assay [2] is Wnt/β-catenin signaling (β-catenin activity) in HEK293 cell line. In words: Cell-based Wnt agonist screening, TCF luciferase reporter, HEK293 (TCF-FL). The arrangement: species or system human. The settings on record: Homo sapiens, HEK293, 24 h, % of LiCl (20 mM), 24 h, Conc. 60 μM, read-out: Max. Activity (%). The essentials: as §1
Background: A reporter such as luciferase makes a cellular process visible.

[3] abbreviates: Group 4 (OVX + AD): alendronate 5 mg/kg/day, oral.
[4] abbreviates: Group 5 (OVX + D30): 30 mg/kg/day, oral.
Where [5] appears, read: Group 6 (OVX + D90): 90 mg/kg/day, oral.
Where [6] appears, read: Group 7 (OVX + W30): 90 mg/kg/week (30 mpkW), once a week.

For the compound `NCCCC(O)(P(=O)(O)O)P(=O)(O)O` [Alendronate, alendronate, reference compound], in the assay on ovariectomized ICR mice (Group 4 (OVX + AD): alendronate 5 mg/kg/day, oral, five day a week), the “BMD (g/cm^2) Avg. ± SD” value turned out to be 0.066 ± 0.012 g/cm^2. In the assay with ovariectomized ICR mice (setting [3]), the “BMD Change (%)” value is −4.3% and the “Trabeculae volume Change (%)” value is recorded as −25.1%. The “Trabeculae volume(mm^2) Avg. ± SD” value with ovariectomized ICR mice (Group 4 (OVX + AD): alendronate 5 mg/kg/day, oral, spine L3-L6, micro-CT) was 15.5 ± 3.27 mm^2.

As to `O=C(NCCCn1ccnc1)c1cc(-c2ccco2)on1` [Derivative (1), 5-furan-2-yl-isoxazole-3-carboxylic acid (3-imidazol-1-yl-propyl)-amide], the Emax at 120 µM in assay [1] was 957%. Also, the “BMD (g/cm^2) Avg. ± SD” value is 0.061 ± 0.007 g/cm^2 in the assay with ovariectomized ICR mice (Group 5 (OVX + D30): 30 mg/kg/day, oral, five day a week); 0.063 ± 0.005 g/cm^2 in the assay with ovariectomized ICR mice (Group 6 (OVX + D90): 90 mg/kg/day, oral, five day a week); 0.058 ± 0.006 g/cm^2 in the assay on ovariectomized ICR mice (setting [6]). Also, the figures for the “BMD Change (%)” value in the assay on ovariectomized ICR mice (setting [4]), in the assay on ovariectomized ICR mice (setting [5]) and with ovariectomized ICR mice (setting [6]) were −11.6%, −8.7% and −15.9%, respectively. Besides, the “Trabeculae volume Change (%)” value with ovariectomized ICR mice (setting [4]) turned out to be 4.8%; in the assay with ovariectomized ICR mice (setting [5]) it was 44.4%; with ovariectomized ICR mice (setting [6]) it was 26.1%. Also, the “Trabeculae volume(mm^2) Avg. ± SD” value in the assay with ovariectomized ICR mice (Group 5 (OVX + D30): 30 mg/kg/day, oral, spine L3-L6, micro-CT) is 21.7 ± 2.43 mm^2; in the assay on ovariectomized ICR mice (Group 6 (OVX + D90): 90 mg/kg/day, oral, spine L3-L6, micro-CT), 29.9 ± 0.83 mm^2; with ovariectomized ICR mice (Group 7 (OVX + W30): 90 mg/kg/week (30 mpkW), once a week, micro-CT) it was 26.1 ± 1.87 mm^2. Moreover, the “therapeutic effect on bone mass compared with alendronate” value in the assay with ovariectomized ICR mice (OVX mice, four weeks administration) was “exceed that of alendronate”. Also, the “effect on bone mineral density (BMD) versus OVX group” value with ovariectomized ICR mice (OVX mice, four weeks administration, DEXA) is “decrease in bone mineral density to lesser extents compared to the OVX group”. In addition, the “effect on bone mass (BV/TV)” value with ovariectomized ICR mice (OVX mice, four weeks administration, micro-CT) was “restrain the decrease of bone mass, but also to increase the bone density to a higher level than before ovariectomy”. For the same compound, the Emax at 60 µM in assay [2] was 70%.
